Data as given in ChEMBL document CHEMBL1152924, “Synthetic staurosporines via a ring closing metathesis strategy as potent JAK3 inhibitors and modulators of allergic responses” (Bioorg Med Chem Lett, 2009).

Tests used:
[1] = biological target: Tyrosine-protein kinase SYK (Homo sapiens, UniProt P43405); test: Inhibition of SYK-mediated inhibition of biotinylated substrate phosphorylation
Jurkat [2] = test: Antiproliferative activity against JAK3 expressing human resting Jurkat cells; type: functional, cell-based
Jurkat [3] = test: Antiproliferative activity against JAK3 expressing IL2-stimulated human Jurkat cells; type: functional, cell-based
[4] = biological target: T1, Tyrosine-protein kinase JAK3 (Homo sapiens, UniProt P52333); test: Inhibition of JAK3 expressed in insect Sf21 cells assessed as inhibition of biotinylated substrate phosphorylation
T1 sequence (P52333 whole entry): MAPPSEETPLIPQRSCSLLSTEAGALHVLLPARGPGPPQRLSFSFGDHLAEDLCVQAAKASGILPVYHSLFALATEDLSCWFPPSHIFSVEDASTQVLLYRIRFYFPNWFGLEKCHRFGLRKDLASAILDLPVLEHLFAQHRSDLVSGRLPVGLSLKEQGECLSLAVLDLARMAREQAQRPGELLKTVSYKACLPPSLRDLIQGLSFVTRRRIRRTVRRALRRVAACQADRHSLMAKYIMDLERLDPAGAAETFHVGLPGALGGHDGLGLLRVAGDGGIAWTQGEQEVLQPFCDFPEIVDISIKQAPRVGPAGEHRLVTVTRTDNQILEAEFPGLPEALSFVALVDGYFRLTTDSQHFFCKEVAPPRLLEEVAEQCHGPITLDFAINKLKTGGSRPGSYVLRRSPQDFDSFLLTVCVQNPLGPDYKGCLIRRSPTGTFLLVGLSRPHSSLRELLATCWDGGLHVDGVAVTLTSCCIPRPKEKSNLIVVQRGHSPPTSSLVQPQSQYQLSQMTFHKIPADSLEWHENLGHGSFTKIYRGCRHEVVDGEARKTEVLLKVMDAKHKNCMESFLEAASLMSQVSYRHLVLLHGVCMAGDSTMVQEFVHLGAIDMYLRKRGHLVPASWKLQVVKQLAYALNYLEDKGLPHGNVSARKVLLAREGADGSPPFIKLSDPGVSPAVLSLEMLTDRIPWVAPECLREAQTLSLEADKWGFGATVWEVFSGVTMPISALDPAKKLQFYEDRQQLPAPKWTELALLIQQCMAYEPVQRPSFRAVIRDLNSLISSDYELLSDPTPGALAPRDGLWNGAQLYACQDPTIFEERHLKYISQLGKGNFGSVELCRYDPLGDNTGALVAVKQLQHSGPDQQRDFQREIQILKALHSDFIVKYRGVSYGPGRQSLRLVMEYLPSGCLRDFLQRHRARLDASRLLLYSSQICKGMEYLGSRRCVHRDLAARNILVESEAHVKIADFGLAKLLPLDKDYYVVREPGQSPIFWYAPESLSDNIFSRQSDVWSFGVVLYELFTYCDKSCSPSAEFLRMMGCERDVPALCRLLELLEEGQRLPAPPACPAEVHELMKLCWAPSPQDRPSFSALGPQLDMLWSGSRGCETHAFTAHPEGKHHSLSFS

[5] = biological target: T2, Tyrosine-protein kinase ZAP-70 (Homo sapiens, UniProt P43403); test: Inhibition of Zap70-mediated inhibition of biotinylated substrate phosphorylation
T2 sequence (P43403 whole entry): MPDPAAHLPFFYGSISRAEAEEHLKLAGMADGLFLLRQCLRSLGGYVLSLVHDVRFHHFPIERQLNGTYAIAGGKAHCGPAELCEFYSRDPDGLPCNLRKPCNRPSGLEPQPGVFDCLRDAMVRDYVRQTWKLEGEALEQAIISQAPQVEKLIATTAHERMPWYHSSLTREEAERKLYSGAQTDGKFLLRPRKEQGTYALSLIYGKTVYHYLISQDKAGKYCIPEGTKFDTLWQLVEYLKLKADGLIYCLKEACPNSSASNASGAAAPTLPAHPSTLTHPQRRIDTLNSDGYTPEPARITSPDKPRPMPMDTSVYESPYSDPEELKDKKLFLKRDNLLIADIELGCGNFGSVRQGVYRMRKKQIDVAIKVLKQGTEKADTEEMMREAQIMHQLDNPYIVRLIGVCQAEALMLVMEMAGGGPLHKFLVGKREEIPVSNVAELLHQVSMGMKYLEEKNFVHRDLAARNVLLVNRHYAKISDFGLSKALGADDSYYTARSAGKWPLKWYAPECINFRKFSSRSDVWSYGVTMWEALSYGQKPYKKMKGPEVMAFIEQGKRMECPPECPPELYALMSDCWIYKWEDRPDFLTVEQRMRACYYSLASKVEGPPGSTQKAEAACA

[6] = biological target: MAP kinase-activated protein kinase 2 (Homo sapiens, UniProt P49137); test: Inhibition of MK2-mediated inhibition of biotinylated substrate phosphorylation
[7] = biological target: Tyrosine-protein kinase Lck (Homo sapiens, UniProt P06239); test: Inhibition of LCK-mediated inhibition of biotinylated substrate phosphorylation
Mast cell [8] = test: Inhibition of LPS-induced TNFalpha release in mast cells; type: functional, cell-based
T-cell = test: Inhibition of IL2-induced PHA-stimulated healthy human T cells proliferation by [3H]thymidine assay; type: functional, cell-based
Mast cell [9] = test: Inhibition of hexosaminidase release in IgE-stimulated mast cells; type: functional, cell-based
Mus musculus [10] = test: Inhibition of ovalbumin-induced IgE production in mouse at 10 mg/kg, ip administered on day 1, 3 and 5 after 1 hr of ovalbumin challenge followed by additional dosing on day 2 and 4 measured on day 8 by ELISA; type: functional; design: scale not given: the % may be the effect or the level left; conditions: route intraperitoneal
Mus musculus [11] = test: Inhibition of ovalbumin-induced IgE production in mouse at 30 mg/kg, ip administered on day 1, 3 and 5 after 1 hr of ovalbumin challenge followed by additional dosing on day 2 and 4 measured on day 8 by ELISA; type: functional; design: scale not given: the % may be the effect or the level left; conditions: route intraperitoneal
Mus musculus [12] = test: Antiinflammatory activity against ovalbumin-induced asthma in BALB/c mouse model assessed as reduction of eosinophil count in broncheovular lavage fluid at 30 mg/kg, ip measured on day 32 after ovalbumin challenge; type: functional; design: scale not given: the % may be the effect or the level left; conditions: route intraperitoneal
Mus musculus [13] = test: Antiinflammatory activity against ovalbumin-induced asthma in BALB/c mouse model assessed as reduction in methacoline-induced airway constriction at 30 mg/kg, ip measured on day 32 after ovalbumin challenge; type: functional; design: scale not given: the % may be the effect or the level left; conditions: route intraperitoneal
Mus musculus [14] = test: Antiinflammatory activity against ovalbumin-induced asthma in BALB/c mouse model assessed as reduction of neutrophil count in broncheovular lavage fluid at 30 mg/kg, ip measured on day 32 after ovalbumin challenge; type: functional; design: scale not given: the % may be the effect or the level left; conditions: route intraperitoneal

Sequence of Tyrosine-protein kinase Lck (P06239 whole entry): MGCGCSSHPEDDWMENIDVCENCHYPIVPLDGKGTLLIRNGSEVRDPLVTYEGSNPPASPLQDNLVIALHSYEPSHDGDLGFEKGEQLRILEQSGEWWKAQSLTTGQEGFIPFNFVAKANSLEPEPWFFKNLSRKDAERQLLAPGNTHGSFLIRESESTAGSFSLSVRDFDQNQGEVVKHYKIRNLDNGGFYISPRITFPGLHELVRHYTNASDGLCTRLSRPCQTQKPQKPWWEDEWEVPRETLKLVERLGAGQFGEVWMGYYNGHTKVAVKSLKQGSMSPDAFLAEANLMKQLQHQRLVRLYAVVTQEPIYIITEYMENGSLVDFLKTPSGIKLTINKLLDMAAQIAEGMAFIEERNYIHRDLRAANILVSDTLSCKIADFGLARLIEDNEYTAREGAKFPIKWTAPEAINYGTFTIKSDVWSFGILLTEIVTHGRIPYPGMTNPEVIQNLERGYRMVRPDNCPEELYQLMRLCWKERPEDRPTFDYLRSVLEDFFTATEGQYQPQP
Sequence of MAP kinase-activated protein kinase 2 (P49137 whole entry): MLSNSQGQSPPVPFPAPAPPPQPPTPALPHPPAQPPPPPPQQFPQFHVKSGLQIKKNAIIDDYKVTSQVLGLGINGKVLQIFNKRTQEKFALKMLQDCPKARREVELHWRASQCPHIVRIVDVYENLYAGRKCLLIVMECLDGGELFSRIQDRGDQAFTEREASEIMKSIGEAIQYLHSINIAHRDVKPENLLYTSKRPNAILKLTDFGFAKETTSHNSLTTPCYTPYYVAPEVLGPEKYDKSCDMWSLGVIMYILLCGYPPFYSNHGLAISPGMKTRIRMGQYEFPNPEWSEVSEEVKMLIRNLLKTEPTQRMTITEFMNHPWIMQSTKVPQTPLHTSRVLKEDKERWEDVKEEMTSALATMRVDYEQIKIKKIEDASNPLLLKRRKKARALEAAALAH

| SMILES | IC50 (Jurkat [2]) | IC50 (Jurkat [3]) | IC50 [4] | other results |
| --- | --- | --- | --- | --- |
| CC(=O)/C1=C/Cn2c3ccccc3c3c4c(c5c6ccccc6n(c5c32)C1)C(=O)NC4=O | > 10000 nM | 575 nM | 7 nM | IC50 [1]: > 1000 nM; IC50 [5]: > 1000 nM; IC50 [6]: 540 nM; IC50 [7]: > 1000 nM |
| O=C1NC(=O)c2c1c1c3ccccc3n3c1c1c2c2ccccc2n1CC(O)CCC3 (stereo not given) | > 10000 nM | 2860 nM | – | – |
| C=CCn1c2ccccc2c2c3c(c4c5ccccc5n(CC=C)c4c21)C(=O)NC3 | – | – | > 200 nM | – |
| O=C1NCc2c1c1c3ccccc3n3c1c1c2c2ccccc2n1C[C@@H](O)[C@@H](O)C3 (relative stereo) | 10000 nM | 98 nM | 6 nM | IC50 (Mast cell [8]): 18 nM; IC50 [1]: 300 nM; IC50 [5]: 200 nM; IC50 [6]: > 1000 nM; IC50 [7]: > 1000 nM; IC50 (T-cell): 100 nM; IC50 (Mast cell [9]): 55 nM; Activity (Mus musculus [10]): 15%; Activity (Mus musculus [11]): 70%; Activity (Mus musculus [12]): 54%; Activity (Mus musculus [13]): 90%; Activity (Mus musculus [14]): 54% |
| O=C1NC(=O)c2c1c1c3ccccc3n3c1c1c2c2ccccc2n1C[C@@](O)(C(=O)O)[C@H](O)C3 (relative stereo) | > 10000 nM | 222 nM | 9 nM | – |
| CN(C)C1CCN(C(=O)[C@]2(O)Cn3c4ccccc4c4c5c(c6c7ccccc7n(c6c43)C[C@H]2O)C(=O)NC5=O)C1 (stereo not given in full) | 1600 nM | 57 nM | 15 nM | – |
| O=C1NCc2c1c1c3ccccc3n3c1c1c2c2ccccc2n1C/C=C\C3 | > 10000 nM | 111 nM | 39 nM | – |
| O=C1NC(=O)c2c1c1c3ccccc3n3c1c1c2c2ccccc2n1C[C@@H](O)[C@@H](O)CC3 (relative stereo) | > 10000 nM | 227 nM | 9 nM | – |
| COC(=O)[C@]1(O)Cn2c3ccccc3c3c4c(c5c6ccccc6n(c5c32)C[C@H]1O)C(=O)NC4=O (relative stereo) | > 10000 nM | 23 nM | 1 nM | IC50 [1]: > 1000 nM; IC50 [5]: > 1000 nM; IC50 [6]: > 1000 nM; IC50 [7]: 300 nM |
| O=C1NC(=O)c2c1c1c3ccccc3n3c1c1c2c2ccccc2n1C[C@H](O)[C@H](O)C3 | > 10000 nM | 48 nM | 3 nM | – |
| O=C1NCc2c1c1c3ccccc3[nH]c1c1[nH]c3ccccc3c21 [STAUROSPORINONE] | – | – | 61 nM | – |
| O=C1NC(=O)c2c1c1c3ccccc3n3c1c1c2c2ccccc2n1CC(O)CC3 (stereo not given) | 5670 nM | 160 nM | – | – |
| O=C1NCc2c1c1c3ccccc3n3c1c1c2c2ccccc2n1CC[C@@H](O)[C@@H](O)CC3 (relative stereo) | 616 nM | 45 nM | 12 nM | – |
| O=C1NCc2c1c1c3ccccc3n3c1c1c2c2ccccc2n1CC/C=C\CC3 | 10000 nM | 432 nM | – | – |
